Measurements from patent US5972894A, “Peptides having potassium channel opener activity” (Cytran, Inc., priority 1997, dated 1999).

System: ischemic myocardium
Test: Inotropic function and arrhythmias of ischemic isolated rat heart during reperfusion
Details: for Diastolic Pressure in Ischemic Left Ventricle (% of Preischemic Mean Value) / Evolving Pressure in Ischemic Left Ventricle (% of Preischemic Mean Value) / Heart Rate during Reperfusion (% of Preischemic Mean Value) / Maximal Rate of Increase of Left Ventricle Pressure (% of Preischemic Mean Value) / Maximal Rate of Left Ventricle Pressure Decrease (% of Preischemic Mean Value) / Systolic Pressure in Ischemic Left Ventricle (% of Preischemic Values): 14.0 mg/l
Excerpt: Rat hearts were surgically isolated from white random-bred rats weighing approximately 250 g. The isolated hearts were perfused with a standard oxygenated (95% O2 and 5% CO2) Krebs-Henseleit solution in a retrograde manner (i.e., according to Langendorff and using a constant perfusate pressure of 80 cm of water). The hearts maintained a steady spontaneous contraction rate. A latex balloon catheter connected to a pressure transducer (EMT-746, Siemens-Elema, Sweden) was inserted into the left ventricle of each heart to measure the inotropic function of the heart (as described in Example 3, above). The left ventricle pressure variation curve was recorded using a polygraph.
Stage I ("adaptation regimen") consisted of a 30-minute adaptation of the respective rat hearts to the perfusion regimen. The baseline parameters for the inotropic function of each heart were recorded to establish the preischemic values for the following measured parameters: (i) the systolic pressure in the left ventricle (Psyst. mm Hg); (ii) the diastolic pressure in the left ventricle (Pdiast. mm Hg); (iii) the evolving pressure (Pev. =Psyst. -Pdist. mm Hg); (iv) the maximal rate of increase of left ventricle pressure (+dp/dtmax mm Hg/sec); and (v) the maximal rate of decrease of left ventricle pressure (-dp/dtmax mm Hg/sec). In addition, the heart rate (HR) of each heart was determined from the recordings made of the variations in the left ventricle pressure over time. In Stage II ("ischemic simulation"), ischemia was induced in each heart by shutting off the supply of the perfusion solution to the heart. Approximately 30 minutes later, Stage III ("reperfusion regimen") was initiated by restarting the reperfusion and including in the perfusate solution a test or control substance at one of the following respective concentrations: a perfusate solution of a test substance comprised 0.06, 0.6, or 6.0 mg/l GE, or 0.06, 0.6, or 6.0 mg/l VT, respectively; a perfusate solution of the positive control substance comprised 14 mg/l inosine. Inosine is a nucleoside preparation that produces a favorable inotropic effect on both normal and ischemic myocardium while inducing no rhythm disturbances or acceleration of ischemic contracture development. Woollard et al., Cardiovasc. Res. 15: 659-67 (1981). Inosine was obtained from Sigma Chemical Company, USA (Cat. Code I-4125; lot number 81H0227). The negative control substance comprised reperfusion using a standard oxygenated Krebs-Henseleit solution.
For each heart, the inotropic function of the myocardium was evaluated by measuring the parameters (i) through (v), discussed above, and the heart rate. These six parameters were recorded continuously throughout the study (i.e., beginning with Stage I and continuing through Stage III). The recordings were analyzed at the following times: (a) immediately before beginning Stage II (that is, after the 30-minute Stage I adaptation period, but before stopping perfusion); and (b) at 1, 5, 10, 20, and 30 minutes into the Stage III reperfusion.
The frequency and duration of rhythm disturbances in the 30-minute Stage III reperfusion period were determined by measuring the following parameters: (i) the number of ventricular extrasystoles; (ii) the overall duration of ventricular tachycardias (in seconds); and (iii) the overall duration of ventricular fibrillation (in seconds). Each dose of the test substance was tested on nine isolated hearts.

[1] = 14.1 mg/l, 30-minute reperfusion

SMILES: OC[C@H]1O[C@@H](n2cnc3c(O)ncnc32)[C@H](O)[C@@H]1O [Inosine, reference compound]
- Diastolic Pressure in Ischemic Left Ventricle (% of Preischemic Mean Value) (1 min reperfusion): 92.35%
- Evolving Pressure in Ischemic Left Ventricle (% of Preischemic Mean Value) (1 min reperfusion): 57.13%
- Heart Rate during Reperfusion (% of Preischemic Mean Value) (1 min reperfusion): 45.37%
- Maximal Rate of Increase of Left Ventricle Pressure (% of Preischemic Mean Value) (1 min reperfusion): 50.85%
- Maximal Rate of Left Ventricle Pressure Decrease (% of Preischemic Mean Value) (1 min reperfusion): 41.91%
- Systolic Pressure in Ischemic Left Ventricle (% of Preischemic Values) (1 min reperfusion): 62.15%
- Diastolic Pressure in Ischemic Left Ventricle (% of Preischemic Mean Value) (5 min reperfusion): 111.83%
- Evolving Pressure in Ischemic Left Ventricle (% of Preischemic Mean Value) (5 min reperfusion): 57.59%
- Heart Rate during Reperfusion (% of Preischemic Mean Value) (5 min reperfusion): 69.97%
- Maximal Rate of Increase of Left Ventricle Pressure (% of Preischemic Mean Value) (5 min reperfusion): 54.25%
- Maximal Rate of Left Ventricle Pressure Decrease (% of Preischemic Mean Value) (5 min reperfusion): 65.94%
- Systolic Pressure in Ischemic Left Ventricle (% of Preischemic Values) (5 min reperfusion): 66.17%
- Diastolic Pressure in Ischemic Left Ventricle (% of Preischemic Mean Value) (10 min reperfusion): 139.32%
- Evolving Pressure in Ischemic Left Ventricle (% of Preischemic Mean Value) (10 min reperfusion): 82.33%
- Heart Rate during Reperfusion (% of Preischemic Mean Value) (10 min reperfusion): 67.52%
- Maximal Rate of Increase of Left Ventricle Pressure (% of Preischemic Mean Value) (10 min reperfusion): 82.35%
- Maximal Rate of Left Ventricle Pressure Decrease (% of Preischemic Mean Value) (10 min reperfusion): 78.85%
- Systolic Pressure in Ischemic Left Ventricle (% of Preischemic Values) (10 min reperfusion): 86.05%
- Diastolic Pressure in Ischemic Left Ventricle (% of Preischemic Mean Value) (20 min reperfusion): 148.63%
- Evolving Pressure in Ischemic Left Ventricle (% of Preischemic Mean Value) (20 min reperfusion): 94.19%
- Heart Rate during Reperfusion (% of Preischemic Mean Value) (20 min reperfusion): 79.97%
- Maximal Rate of Increase of Left Ventricle Pressure (% of Preischemic Mean Value) (20 min reperfusion): 83.58%
- Maximal Rate of Left Ventricle Pressure Decrease (% of Preischemic Mean Value) (20 min reperfusion): 91.83%
- Systolic Pressure in Ischemic Left Ventricle (% of Preischemic Values) (20 min reperfusion): 99.29%
- Diastolic Pressure in Ischemic Left Ventricle (% of Preischemic Mean Value) (30 min reperfusion): 149.42%
- Evolving Pressure in Ischemic Left Ventricle (% of Preischemic Mean Value) (30 min reperfusion): 91.68%
- Heart Rate during Reperfusion (% of Preischemic Mean Value) (30 min reperfusion): 75.60%
- Maximal Rate of Increase of Left Ventricle Pressure (% of Preischemic Mean Value) (30 min reperfusion): 77.85%
- Maximal Rate of Left Ventricle Pressure Decrease (% of Preischemic Mean Value) (30 min reperfusion): 93.88%
- Systolic Pressure in Ischemic Left Ventricle (% of Preischemic Values) (30 min reperfusion): 96.62%
- -dp/dtmax, % of preischemic value (14 mg/l, after approximately 10 to 20 minutes): about 80%
- Number of Ventricular Extrasystoles [1]: 230.4
- Overall Duration of Ventricular Fibrillation [1]: 52.9 s
- Overall Duration of Ventricular Tachycardia [1]: 1.3 s
